Assay results taken from ChEMBL document CHEMBL1201862, “PubChem BioAssay data set” (2004).
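Cells were grown in 96-well plates and exposed to each compound for 48 hours at five concentrations; endpoints were interpolated linearly between bracketing concentrations, or set to the highest concentration if not reached. The concentration for 50% growth inhibition is given as GI50.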 Active and inactive are the calls of the source. Rule as the data show it: active = GI50 up to about 1.1 µM and inactive = higher.

Key:
Assay in all cases: DTP human tumour cell line panel, 48 h
DLD-1 = system: DLD-1
HOP-18 = system: HOP-18
LXFL 529 = system: LXFL 529
RXF 631 = system: RXF 631
DMS-273 = system: DMS-273
XF498 = system: XF498
M19-MEL = system: M19-MEL
DMS-114 = system: DMS-114
BT-549 = system: BT-549

## COC1=C2C[C@@H](C)C[C@@H](OC)[C@@H](O)[C@H](C)/C=C(\C)[C@@H](OC(N)=O)[C@H](OC)/C=C\C=C(/C)C(=O)NC(=CC1=O)C2=O
DLD-1
  GI50: 0.0679 µM (active)
HOP-18
  GI50: 0.159 µM (active)
LXFL 529
  GI50: 0.0267 µM (active)
RXF 631
  GI50: 0.71 µM (active)
DMS-273
  GI50: 0.117 µM (active)
XF498
  GI50: 0.0787 µM (active)

## O=C(CCCCCCCCCCc1ccccc1)C1=C(O)CC(O)CC1=O (configuration not stated)
DLD-1
  GI50: 80.4 µM (inactive)
M19-MEL
  GI50: 53.3 µM (inactive)
HOP-18
  GI50: > 100 µM (inactive)
DMS-114
  GI50: 35.5 µM (inactive)
LXFL 529
  GI50: 53.3 µM (inactive)
RXF 631
  GI50: 56.8 µM (inactive)
DMS-273
  GI50: 48 µM (inactive)
XF498
  GI50: > 100 µM (inactive)

## CCOc1cccc2c1N[S@@](=O)S2
DLD-1
  GI50: > 100 µM (inactive)
M19-MEL
  GI50: > 100 µM (inactive)
LXFL 529
  GI50: 58.7 µM (inactive)
RXF 631
  GI50: > 100 µM (inactive)
DMS-273
  GI50: > 100 µM (inactive)
XF498
  GI50: 78.7 µM (inactive)

## CC(=O)NC(CCCCN(Cc1ccccc1)C(=O)NCCCl)C(=O)NCc1ccccc1 (configuration not stated)
DLD-1
  GI50: > 100 µM (inactive)
HOP-18
  GI50: 29.1 µM (inactive)
DMS-114
  GI50: > 100 µM (inactive)
LXFL 529
  GI50: > 100 µM (inactive)
RXF 631
  GI50: > 100 µM (inactive)
DMS-273
  GI50: > 100 µM (inactive)

## O=c1[nH]c(=O)n(C2OC3COC2C3O)cc1F (configuration not stated)
DLD-1
  GI50: > 100 µM (inactive)
HOP-18
  GI50: > 100 µM (inactive)
LXFL 529
  GI50: > 100 µM (inactive)
RXF 631
  GI50: > 100 µM (inactive)
DMS-273
  GI50: > 100 µM (inactive)
XF498
  GI50: > 100 µM (inactive)

## CN(C)CCNC(=O)c1cccc2nc3c4ccccc4c4ccccc4c3nc12
DLD-1
  GI50: 1.56 µM (inactive)
M19-MEL
  GI50: 1.88 µM (inactive)
HOP-18
  GI50: 8.71 µM (inactive)
BT-549
  GI50: 2.65 µM (inactive)
LXFL 529
  GI50: 2.19 µM (inactive)
RXF 631
  GI50: 2.33 µM (inactive)
DMS-273
  GI50: 2.81 µM (inactive)
XF498
  GI50: 2.47 µM (inactive)

## O=C(Nc1cccc(Cl)c1)C(=O)C(C(=O)c1ccc2ccccc2c1)C1OC(=O)c2ccccc21 (configuration not stated)
DLD-1
  GI50: 16.3 µM (inactive)
M19-MEL
  GI50: 13.8 µM (inactive)
HOP-18
  GI50: 12.1 µM (inactive)
DMS-114
  GI50: 11.5 µM (inactive)
LXFL 529
  GI50: 7.48 µM (inactive)
RXF 631
  GI50: 16.9 µM (inactive)
DMS-273
  GI50: 24.7 µM (inactive)
